Our source for the mutagenic call values is PubChem BioAssay AID1259407 (Chemical Carcinogenesis Research Information System (CCRIS), 2018).

Structures are written as SMILES. Activity calls are given as the source filed them. The rule behind the calls is not given here.

The subject of the data set is CCRIS mutagenicity, Ames/micronucleus/aberration tests. The data set can be described thus: CCRIS mutagenicity studies.
Where [1] appears, read: Test System: AMES SALMONELLA TYPHIMURIUM, Strain/Indicator: TA98, Metabolic Activation: NONE, Method: STANDARD PLATE.
The mark [2] stands for this setting: Test System: AMES SALMONELLA TYPHIMURIUM, Strain/Indicator: TA98, Metabolic Activation: RAT, LIVER, S-9, AROCLOR 1254, Method: STANDARD PLATE.
[3] abbreviates: Test System: AMES SALMONELLA TYPHIMURIUM, Strain/Indicator: TA100, Metabolic Activation: NONE, Method: STANDARD PLATE.
Where [4] appears, read: Test System: AMES SALMONELLA TYPHIMURIUM, Strain/Indicator: TA100, Metabolic Activation: RAT, LIVER, S-9, AROCLOR 1254, Method: STANDARD PLATE.
Setting [5] is: Test System: AMES SALMONELLA TYPHIMURIUM, Strain/Indicator: TA1535, Metabolic Activation: NONE, Method: STANDARD PLATE.
[6] abbreviates: Test System: AMES SALMONELLA TYPHIMURIUM, Strain/Indicator: TA1535, Metabolic Activation: RAT, LIVER, S-9, AROCLOR 1254, Method: STANDARD PLATE.
The mark [7] stands for this setting: Test System: AMES SALMONELLA TYPHIMURIUM, Strain/Indicator: TA1537, Metabolic Activation: NONE, Method: STANDARD PLATE.
The mark [8] stands for this setting: Test System: AMES SALMONELLA TYPHIMURIUM, Strain/Indicator: TA1537, Metabolic Activation: RAT, LIVER, S-9, AROCLOR 1254, Method: STANDARD PLATE.
Where [9] appears, read: Test System: AMES SALMONELLA TYPHIMURIUM, Strain/Indicator: TA1538, Metabolic Activation: NONE, Method: STANDARD PLATE.
[10] abbreviates: Test System: AMES SALMONELLA TYPHIMURIUM, Strain/Indicator: TA1538, Metabolic Activation: RAT, LIVER, S-9, AROCLOR 1254, Method: STANDARD PLATE.
Setting [11] is: Test System: AMES SALMONELLA TYPHIMURIUM, Strain/Indicator: TA100, Metabolic Activation: NONE, Method: PREINCUBATION
[12] abbreviates: Test System: AMES SALMONELLA TYPHIMURIUM, Strain/Indicator: TA102, Metabolic Activation: NONE, Method: STANDARD PLATE.

For the compound `Cn1c([N+](=O)[O-])cnc1C(O)c1cc(C(C)(C)C)cc(C(C)(C)C)c1O` (stereo not drawn), the mutagenic call by setting is: under setting [1], “inactive; negative”; under setting [2], “inactive; negative”; under setting [3], “inactive; negative”; under setting [4], “inactive; negative”; under setting [5], “inactive; negative”; under setting [6], “inactive; negative”. In addition, the mutagenic call is “inactive; negative” under setting [7], “inactive; negative” under setting [8], “inactive; negative” under setting [9] and “inactive; negative” under setting [10].
Turning to `O.O.O.O=C([O-])[C@H]([O-])[C@@H]([O-])C(=O)[O-].O=C([O-])[C@H]([O-])[C@@H]([O-])C(=O)[O-].[K+].[K+].[Sb+3].[Sb+3]`, the mutagenic call runs as follows: (Test System: AMES SALMONELLA TYPHIMURIUM, Strain/Indicator: TA98, Metabolic Activation: HAMSTER, LIVER, S-9, AROCLOR 1254, Method: STANDARD PLATE) “inactive; negative”; under setting [1], “inactive; negative”; under setting [2], “inactive; negative”; (Test System: AMES SALMONELLA TYPHIMURIUM, Strain/Indicator: TA100, Metabolic Activation: HAMSTER, LIVER, S-9, AROCLOR 1254, Method: STANDARD PLATE) “inactive; negative”; under setting [3], “inactive; negative”; under setting [4], “inactive; negative”. The mutagenic call is “inactive; negative” (Test System: AMES SALMONELLA TYPHIMURIUM, Strain/Indicator: TA1535, Metabolic Activation: HAMSTER, LIVER, S-9, AROCLOR 1254, Method: STANDARD PLATE); “inactive; negative” under setting [5]; “inactive; negative” under setting [6]; “inactive; negative” (Test System: AMES SALMONELLA TYPHIMURIUM, Strain/Indicator: TA1537, Metabolic Activation: HAMSTER, LIVER, S-9, AROCLOR 1254, Method: STANDARD PLATE); “inactive; negative” under setting [7]; “inactive; negative” under setting [8]. Moreover, the mutagenic call is “inactive; negative” (Test System: AMES SALMONELLA TYPHIMURIUM, Strain/Indicator: TA1538, Metabolic Activation: HAMSTER, LIVER, S-9, AROCLOR 1254, Method: STANDARD PLATE); “inactive; negative” under setting [9]; “inactive; negative” under setting [10]; “active; positive. reevaluation of results: positive” (Test System: MOUSE LYMPHOMA, Strain/Indicator: L5178Y (TK+/TK-), Metabolic Activation: NONE, Method: SUSPENSION/PLATE); “active; positive. reevaluation of results: positive” (Test System: MOUSE LYMPHOMA, Strain/Indicator: L5178Y (TK+/TK-), Metabolic Activation: RAT, LIVER, S-9, AROCLOR 1254, Method: SUSPENSION/PLATE).
As for `CCn1cc(C(=O)O)c(=O)c2cc(F)c(N3CCNCC3)cc21`, the mutagenic call was “active; positive” (End Point: In vitro micronucleus, Test System: WTK-1 human lymphoma cells, Metabolic Activation: None); “inactive; negative” (Test System: AMES SALMONELLA TYPHIMURIUM, Strain/Indicator: TA98, Metabolic Activation: NONE, Method: PREINCUBATION); “inactive; negative” (Test System: AMES SALMONELLA TYPHIMURIUM, Strain/Indicator: TA98, Metabolic Activation: RAT LIVER S-9, AROCLOR 1254, Method: PREINCUBATION); “inactive; negative” under setting [11]; “inactive; negative” (Test System: AMES SALMONELLA TYPHIMURIUM, Strain/Indicator: TA100, Metabolic Activation: RAT LIVER S-9, AROCLOR 1254, Method: PREINCUBATION); “active; positive” (Test System: AMES SALMONELLA TYPHIMURIUM, Strain/Indicator: TA102, Metabolic Activation: NONE, Method: PREINCUBATION). Also, the mutagenic call reads like this: under setting [12], “active; positive”; (Test System: AMES SALMONELLA TYPHIMURIUM, Strain/Indicator: TA102, Metabolic Activation: RAT LIVER S-9, AROCLOR 1254, Method: PREINCUBATION) “active; positive”; (Test System: AMES SALMONELLA TYPHIMURIUM, Strain/Indicator: TA102, Metabolic Activation: RAT LIVER S-9, AROCLOR 1254, Method: STANDARD PLATE) “active; positive”; (Test System: AMES SALMONELLA TYPHIMURIUM, Strain/Indicator: TA104, Metabolic Activation: NONE, Method: PREINCUBATION) “active; positive”; (Test System: AMES SALMONELLA TYPHIMURIUM, Strain/Indicator: TA104, Metabolic Activation: RAT LIVER S-9, AROCLOR 1254, Method: PREINCUBATION) “active; positive”; (Test System: AMES SALMONELLA TYPHIMURIUM, Strain/Indicator: UHT8414, Metabolic Activation: NONE, Method: PREINCUBATION) “inactive; negative”. Further, the mutagenic call by setting is: (Test System: AMES SALMONELLA TYPHIMURIUM, Strain/Indicator: UHT8414, Metabolic Activation: RAT LIVER S-9, AROCLOR 1254, Method: PREINCUBATION) “inactive; negative”; (Test System: Ames Salmonella typhimurium, Strain/Indicator: TA102, Metabolic Activation: Rat, Liver, S9, Aroclor 1254, Method: Preincubation) “active; positive. vitamin e (alpha-tocoferol) induced a statistically significant reduct”; (Test System: CHINESE HAMSTER V-79, Strain/Indicator: V-79 (HPRT)/6-THIOGUANINE, Metabolic Activation: NONE) “inactive; negative”; (Test System: MOUSE LYMPHOMA, Strain/Indicator: L5178Y (HPRT)/6-THIOGUANINE, Metabolic Activation: NONE, Method: FLUCTUATION TEST) “inactive; negative”; (Test System: MOUSE LYMPHOMA, Strain/Indicator: L5178Y (TK+/TK-), Metabolic Activation: NONE, Method: FLUCTUATION TEST) “inactive; negative”.
For `CCCCOC(=O)CCCCCCCCC(=O)OCCCC`, the mutagenic call was “inactive; negative” (Test System: AMES SALMONELLA TYPHIMURIUM, Strain/Indicator: TA97, Metabolic Activation: NONE, Method: STANDARD PLATE); “inactive; negative” (Test System: AMES SALMONELLA TYPHIMURIUM, Strain/Indicator: TA97, Metabolic Activation: S-9, Method: STANDARD PLATE); “inactive; negative” under setting [1]; “inactive; negative” (Test System: AMES SALMONELLA TYPHIMURIUM, Strain/Indicator: TA98, Metabolic Activation: S-9, Method: STANDARD PLATE); “inactive; negative” under setting [3]; “inactive; negative” (Test System: AMES SALMONELLA TYPHIMURIUM, Strain/Indicator: TA100, Metabolic Activation: S-9, Method: STANDARD PLATE). Also, the mutagenic call under setting [12] was “inactive; negative”; the mutagenic call (Test System: AMES SALMONELLA TYPHIMURIUM, Strain/Indicator: TA102, Metabolic Activation: S-9, Method: STANDARD PLATE) is “inactive; negative”; the mutagenic call (Test System: E.COLI, Strain/Indicator: WP2 (PKM101), Metabolic Activation: NONE, Method: STANDARD PLATE) is “inactive; negative”; the mutagenic call (Test System: E.COLI, Strain/Indicator: WP2 (PKM101), Metabolic Activation: S-9, Method: STANDARD PLATE) is “inactive; negative”.
In the case of `c1ccc(-c2ccc(CCC3CO3)cc2)cc1` (stereo not drawn), the mutagenic call by setting is: under setting [11], “inactive; negative”; under setting [3], “active; positive”; under setting [5], “inactive; negative”.
Consider `O[C@@H]1[C@@H]2O[C@@H]2c2c(ccc3ccc4ccccc4c23)[C@H]1O`, for which the mutagenic call by setting is: (Test System: E. COLI, Strain/Indicator: CL101P, Metabolic Activation: NONE, Method: PREINCUBATION) “active; positive”; (Test System: E. COLI, Strain/Indicator: CL102P, Metabolic Activation: NONE, Method: PREINCUBATION) “active; positive”; (Test System: E. COLI, Strain/Indicator: CL103P, Metabolic Activation: NONE, Method: PREINCUBATION) “active; positive”; (Test System: E. COLI, Strain/Indicator: CL104P, Metabolic Activation: NONE, Method: PREINCUBATION) “active; positive”; (Test System: E. COLI, Strain/Indicator: CL105P, Metabolic Activation: NONE, Method: PREINCUBATION) “active; positive”; (Test System: E. COLI, Strain/Indicator: CL106P, Metabolic Activation: NONE, Method: PREINCUBATION) “active; positive”.
